Drawing on patent publication US8003658B2, “Quinazoline derivatives for inhibiting cancer cell growth and method for the preparation thereof” (Hanmi Holdings Co., Ltd., priority 2004, dated 2011), this text covers IC50 for 24 compounds.

pIC50: −log10 of the molar value. Read-outs that look alike come from different tables or passages of the source.

For one experiment, the system named is A431 (ATCC: CRL-1555). In words: Test of cancer cell growth inhibition (SRB), A431. The conditions noted are these: read-out: IC50 A431.
A further experiment has as its system SK-Br3 (ATCC: HTB-30). Nature of the experiment: Test of cancer cell growth inhibition (SRB), SK-Br3. The conditions noted are these: read-out: IC50 SK-Br-3.
The target of experiment [1] is EGFR (EGFR type 1 kinase) (Homo sapiens, UniProt P00533). In words: Inhibition of EGFR enzyme (fluorescence polarization kinase assay). (Polarisation of emitted light reports the rotation of a fluorescent probe.)
EGFR (EGFR type 1 kinase), sequence (P00533 25-1210, species assumed): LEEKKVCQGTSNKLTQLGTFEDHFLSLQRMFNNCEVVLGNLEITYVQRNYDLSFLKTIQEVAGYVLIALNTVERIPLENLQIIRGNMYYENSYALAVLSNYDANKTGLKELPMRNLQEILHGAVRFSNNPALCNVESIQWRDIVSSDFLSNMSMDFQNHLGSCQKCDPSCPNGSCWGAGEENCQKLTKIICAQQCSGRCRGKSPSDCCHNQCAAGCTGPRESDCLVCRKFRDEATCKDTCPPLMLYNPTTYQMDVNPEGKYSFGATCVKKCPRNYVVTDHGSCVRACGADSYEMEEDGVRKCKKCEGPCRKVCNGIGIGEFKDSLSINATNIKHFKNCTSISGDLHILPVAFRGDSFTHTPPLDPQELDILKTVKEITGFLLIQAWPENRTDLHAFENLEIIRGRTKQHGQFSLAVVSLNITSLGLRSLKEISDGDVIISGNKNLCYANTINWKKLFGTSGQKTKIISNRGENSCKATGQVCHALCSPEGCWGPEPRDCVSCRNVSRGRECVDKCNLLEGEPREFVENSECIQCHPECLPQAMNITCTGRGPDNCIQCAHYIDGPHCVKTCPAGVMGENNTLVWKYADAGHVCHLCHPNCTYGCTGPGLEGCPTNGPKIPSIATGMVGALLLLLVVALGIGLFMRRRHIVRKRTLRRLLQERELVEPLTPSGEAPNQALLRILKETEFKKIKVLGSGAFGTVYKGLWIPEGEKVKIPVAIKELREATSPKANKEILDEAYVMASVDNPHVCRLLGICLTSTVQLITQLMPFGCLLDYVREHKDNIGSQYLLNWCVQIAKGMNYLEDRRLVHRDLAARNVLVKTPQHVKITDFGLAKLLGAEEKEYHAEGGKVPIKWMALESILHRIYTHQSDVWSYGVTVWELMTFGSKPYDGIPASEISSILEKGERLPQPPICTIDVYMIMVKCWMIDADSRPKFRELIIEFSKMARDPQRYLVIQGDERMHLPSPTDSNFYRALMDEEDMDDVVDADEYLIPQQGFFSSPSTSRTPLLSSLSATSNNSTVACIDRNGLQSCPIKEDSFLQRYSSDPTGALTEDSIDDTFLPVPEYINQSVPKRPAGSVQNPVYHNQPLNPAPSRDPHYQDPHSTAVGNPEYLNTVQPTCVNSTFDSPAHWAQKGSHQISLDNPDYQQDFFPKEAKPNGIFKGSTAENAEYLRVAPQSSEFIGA
Protocol: 10 μl of EGFR (EGFR type 1 kinase) was added to each well of a 96-well microplate.
Another experiment has as its system SW-620 (ATCC: CCL-227). In words: Test of cancer cell growth inhibition (SRB), SW-620. The conditions noted are these: read-out: IC50 SW-620.
[2] abbreviates: EGFR overexpressed A431, 72 hours, SRB.
Setting [3] is: Erb-B2 overexpressed SK-Br3, 72 hours, SRB.
[4] abbreviates: SW-620 not having overexpressed EGFR and Erb-B2, 72 hours, SRB.

`C=CC(=O)N[C@@H](CC)C(=O)Nc1cc2c(Nc3ccc(OCc4ccccn4)c(Cl)c3)ncnc2cc1OC` [Example 205, (2S)-2-acryloylamino-N-{4-[3-chloro-4-(pyridin-2-ylmethoxy)-phenylamino]-7-methoxy-quinazolin-6-yl}-butyramide]: the pIC50 (usually the negative decadic logarithm of the IC50, by convention in mol/L) is 7.77 with A431 (ATCC: CRL-1555) (Homo sapiens, A-431, 72 h); 7.72 in the experiment on SK-Br3 (ATCC: HTB-30) (Homo sapiens, SK-BR-3, 72 h); 8.70 in experiment [1].
For `COCC(=O)NCCC(=O)Nc1ccc2ncnc(Nc3ccc(OCc4cccc(F)c4)c(Cl)c3)c2c1` [Example 20-2, N-{4-[3-chloro-4-(3-fluoro-benzyloxy)-phenylamino]-quinazolin-6-yl}-3-(2-methoxy-acetylamino)-propionamide] the same measures were 6.02, 6.82 and 7.52.
For `C=CC(=O)N[C@@H](C)C(=O)Nc1cc2c(Nc3ccc(OCc4ccccn4)c(Cl)c3)ncnc2cc1OC` [Example 190, (1S)—N-(1-{4-[3-chloro-4-(pyridin-2-ylmethoxy)-phenylamino]-7-methoxy-quinazolin-6-ylcarbamoyl}-ethyl)-acrylamide] the same measures were 7.89, 8.22 and 8.70.
For `C=CC(=O)NCCC(=O)Nc1cc2c(Nc3ccc(OCc4ccccn4)c(C)c3)ncnc2cc1F` [Example 178, N-(2-{7-fluoro-4-[3-methyl-4-(pyridin-2-ylmethoxy)-phenylamino]-quinazolin-6-ylcarbamoyl}-ethyl)-acrylamide] the same measures were 7.30, 8.52 and 8.40.
Regarding `C=CC(=O)N[C@@H](C)C(=O)Nc1cc2c(Nc3ccc(OCc4ccccn4)c(Cl)c3)ncnc2cc1OCCCN1CCOCC1` [Example 219, (1S)—N-(1-{4-[3-chloro-4-(pyridin-2-ylmethoxy)-phenylamino]-7-(3-morpholin-4-yl-propoxy)-quinazolin-6-ylcarbamoyl}-ethyl)-acrylamide], the negative-log IC50 (pIC50) is 7.77 in the experiment on A431 (ATCC: CRL-1555) (Homo sapiens, A-431, 72 h); 8.15 with SK-Br3 (ATCC: HTB-30) (Homo sapiens, SK-BR-3, 72 h); 8.70 in experiment [1].
On to `C=C(C)C(=O)NCCC(=O)Nc1ccc2ncnc(Nc3ccc(OCc4cccc(F)c4)c(Cl)c3)c2c1` [Example 30, N-(2-{4-[3-chloro-4-(3-fluoro-benzyloxy)-phenylamino]-quinazolin-6-ylcarbamoyl}-ethyl)-2-methyl-acrylamide], for which the negative-log IC50 (pIC50) with A431 (ATCC: CRL-1555) (Homo sapiens, A-431, 72 h) was 6.92; in the experiment with SK-Br3 (ATCC: HTB-30) (Homo sapiens, SK-BR-3, 72 h), 7.42; with SW-620 (ATCC: CCL-227) (Homo sapiens, SW-620, 72 h), under 5.00.
Consider `O=C(CN1CCOCC1)NCCCC(=O)Nc1ccc2ncnc(Nc3ccc(OCc4cccc(F)c4)c(Cl)c3)c2c1` [Example 103, N-{4-[3-chloro-4-(3-fluoro-benzyloxy)-phenylamino]-quinazolin-6-yl}-4-(2-morpholin-4-yl-acetylamino)-butyramide], for which the pIC50 was 6.64 in the experiment on A431 (ATCC: CRL-1555) (Homo sapiens, A-431, 72 h); 7.38 in the experiment on SK-Br3 (ATCC: HTB-30) (Homo sapiens, SK-BR-3, 72 h); under 5.00 in the experiment on SW-620 (ATCC: CCL-227) (Homo sapiens, SW-620, 72 h).
With `COCC(=O)NCCCC(=O)Nc1ccc2ncnc(Nc3ccc(OCc4cccc(F)c4)c(Cl)c3)c2c1` [Example 87-2, N-{4-[3-chloro-4-(3-fluoro-benzyloxy)-phenylamino]-quinazolin-6-yl}-4-(2-methoxy-acetylamino)-butyramide], the pIC50 with A431 (ATCC: CRL-1555) (Homo sapiens, A-431, 72 h) was 7.02; with SK-Br3 (ATCC: HTB-30) (Homo sapiens, SK-BR-3, 72 h) it was 7.46; in the experiment on SW-620 (ATCC: CCL-227) (Homo sapiens, SW-620, 72 h), under 5.00.
Turning to `COCC(=O)NCC(C)C(=O)Nc1ccc2ncnc(Nc3ccc(OCc4cccc(F)c4)c(Cl)c3)c2c1` (stereo not drawn) [Example 42-2, N-{4-[3-chloro-4-(3-fluoro-benzyloxy)-phenylamino]-quinazolin-6-yl}-3-(2-methoxy-acetylamino)-2-methyl-propionamide], the negative-log IC50 (pIC50) in the experiment on A431 (ATCC: CRL-1555) (Homo sapiens, A-431, 72 h) is 6.47; in the experiment with SK-Br3 (ATCC: HTB-30) (Homo sapiens, SK-BR-3, 72 h), 6.99; in the experiment on SW-620 (ATCC: CCL-227) (Homo sapiens, SW-620, 72 h), under 5.00.
For `CS(=O)(=O)CC(=O)NCCC(=O)Nc1ccc2ncnc(Nc3ccc(OCc4cccc(F)c4)c(Cl)c3)c2c1` [Example 21, N-{4-[3-chloro-4-(3-fluoro-benzyloxy)-phenylamino]-quinazolin-6-yl}-3-(2-methanesulfonyl-acetylamino)-propionamide] the same measures were 6.34, 7.80 and under 5.00.
Take `COCC(=O)NCCCCC(=O)Nc1ccc2ncnc(Nc3ccc(OCc4cccc(F)c4)c(Cl)c3)c2c1` [Example 115-2, 5-(2-methoxy-acetylamino)-pentanoic acid {4-[3-chloro-4-(3-fluoro-benzyloxy)-phenylamino]-quinazolin-6-yl}-amide]: the negative logarithm of the IC50 (pIC50) is 6.93 with A431 (ATCC: CRL-1555) (Homo sapiens, A-431, 72 h); 7.42 in the experiment with SK-Br3 (ATCC: HTB-30) (Homo sapiens, SK-BR-3, 72 h); under 5.00 in the experiment on SW-620 (ATCC: CCL-227) (Homo sapiens, SW-620, 72 h).
Turning to `CSCC(=O)NCCC(=O)Nc1ccc2ncnc(Nc3ccc(OCc4cccc(F)c4)c(Cl)c3)c2c1` [Example 117, N-{4-[3-chloro-4-(3-fluoro-benzyloxy)-phenylamino]-quinazolin-6-yl}-3-(2-methanesulfanyl-acetylamino)-propionamide], the pIC50 is 6.47 in the experiment with A431 (ATCC: CRL-1555) (setting [2]), 7.40 in the experiment with SK-Br3 (ATCC: HTB-30) (setting [3]) and under 5.00 with SW-620 (ATCC: CCL-227) (setting [4]).
On to `COCC(=O)NCC(O)C(=O)Nc1ccc2ncnc(Nc3ccc(OCc4cccc(F)c4)c(Cl)c3)c2c1` (stereo not drawn) [Example 40, N-{4-[3-chloro-4-(3-fluoro-benzyloxy)-phenylamino]-quinazolin-6-yl}-2-hydroxyl-3-(2-methoxy-acetylamino)-propionamide], for which the pIC50 in the experiment with A431 (ATCC: CRL-1555) (Homo sapiens, A-431, 72 h) was 6.49; with SK-Br3 (ATCC: HTB-30) (Homo sapiens, SK-BR-3, 72 h), 7.08; in the experiment on SW-620 (ATCC: CCL-227) (Homo sapiens, SW-620, 72 h), under 5.00.
Take `CC#CC(=O)NCCC(=O)Nc1ccc2ncnc(Nc3ccc(OCc4cccc(F)c4)c(Cl)c3)c2c1` [Example 27, but-2-ynoylic acid(2-{4-[3-chloro-4-(3-fluoro-benzyloxy)-phenylamino]-quinazolin-6-ylcarbamoyl}-ethyl)-amide]: the pIC50 with A431 (ATCC: CRL-1555) (setting [2]) was 7.07; in the experiment with SK-Br3 (ATCC: HTB-30) (setting [3]), 8.00; with SW-620 (ATCC: CCL-227) (setting [4]) it was under 5.00.
For `C=CC(=O)N[C@@H](CCSC)C(=O)Nc1ccc2ncnc(Nc3ccc(OCc4cccc(F)c4)c(Cl)c3)c2c1` [Example 9, (2S)-2-acryloylamino-N-{4-[3-chloro-4-(3-fluoro-benzyloxy)-phenylamino]-quinazolin-6-yl}-4-methanesulfanyl-butyramide] the same measures were 7.22, 8.15 and under 5.00.
For `CC(C)=CC(=O)NCCC(=O)Nc1ccc2ncnc(Nc3ccc(OCc4cccc(F)c4)c(Cl)c3)c2c1` [Example 29, 3-methyl-but-2-enonylic acid (2-{4-[3-chloro-4-(3-fluoro-benzyloxy)-phenylamino]-quinazolin-6-ylcarbamoyl}-ethyl)-amide] the same measures were 6.51, 7.27 and under 5.00.
With `O=C(CCNC(=O)C1=CCCC1)Nc1ccc2ncnc(Nc3ccc(OCc4cccc(F)c4)c(Cl)c3)c2c1` [Example 25, cyclopent-1-en carboxylic acid (2-{4-[3-chloro-4-(3-fluoro-benzyloxy)-phenylamino]-quinazolin-6-ylcarbamoyl}-ethyl)-amide], the pIC50 in the experiment with A431 (ATCC: CRL-1555) (Homo sapiens, A-431, 72 h) is 6.86; in the experiment with SK-Br3 (ATCC: HTB-30) (Homo sapiens, SK-BR-3, 72 h) it was 6.88; in the experiment on SW-620 (ATCC: CCL-227) (Homo sapiens, SW-620, 72 h) it was under 5.00.
Regarding `CC=CC(=O)NCCC(=O)Nc1ccc2ncnc(Nc3ccc(OCc4cccc(F)c4)c(Cl)c3)c2c1` [Example 28, but-2-enonylic acid (2-{4-[3-chloro-4-(3-fluoro-benzyloxy)-phenylamino]-quinazolin-6-ylcarbamoyl}-ethyl)-amide], the pIC50 is 6.71 with A431 (ATCC: CRL-1555) (setting [2]), 7.19 with SK-Br3 (ATCC: HTB-30) (setting [3]) and under 5.00 in the experiment with SW-620 (ATCC: CCL-227) (setting [4]).
As for `C#Cc1cccc(Nc2ncnc3cc(OCCOC)c(OCCOC)cc23)c1` [Tarceva, reference compound], the pIC50 was 7.23 in the experiment with A431 (ATCC: CRL-1555) (Homo sapiens, A-431, 72 h); 6.05 in the experiment with SK-Br3 (ATCC: HTB-30) (Homo sapiens, SK-BR-3, 72 h); under 5.00 in the experiment on SW-620 (ATCC: CCL-227) (Homo sapiens, SW-620, 72 h).
Consider `CCNC(=O)NCCC(=O)Nc1ccc2ncnc(Nc3ccc(OCc4cccc(F)c4)c(Cl)c3)c2c1` [Example 123, N-{4-[3-chloro-4-(3-fluoro-benzyloxy)-phenylamino]-quinazolin-6-yl}-3-(3-ethyl-ureido)-propionamide], for which the negative logarithm of the IC50 (pIC50) is 6.62 in the experiment on A431 (ATCC: CRL-1555) (Homo sapiens, A-431, 72 h); 7.44 with SK-Br3 (ATCC: HTB-30) (Homo sapiens, SK-BR-3, 72 h); under 5.00 with SW-620 (ATCC: CCL-227) (Homo sapiens, SW-620, 72 h).
On to `CC(C)(C)OC(=O)NCCC(=O)Nc1ccc2ncnc(Nc3ccc4c(cnn4Cc4ccccc4)c3)c2c1` [Example 77, {2-[4-(1-benzyl-1-indazol-5-ylamino)-quinazolin-6-ylcarbamoyl]-ethyl}-carbamic acid t-butylester], for which the figures for the negative-log IC50 (pIC50) in the experiment with A431 (ATCC: CRL-1555) (setting [2]), in the experiment on SK-Br3 (ATCC: HTB-30) (setting [3]) and with SW-620 (ATCC: CCL-227) (setting [4]) were 6.68, 7.07 and under 5.00, respectively.
On to `C=CC(=O)NCCCC(=O)Nc1ccc2ncnc(Nc3ccc(OCc4cccc(F)c4)c(Cl)c3)c2c1` [Example 89, 4-acryloylamino-N-{4-[3-chloro-4-(3-fluoro-benzyloxy)-phenylamino]-quinazolin-6-yl}-butyramide], for which the pIC50 in the experiment on A431 (ATCC: CRL-1555) (Homo sapiens, A-431, 72 h) was 6.76; with SK-Br3 (ATCC: HTB-30) (Homo sapiens, SK-BR-3, 72 h) it was 7.72; in the experiment with SW-620 (ATCC: CCL-227) (Homo sapiens, SW-620, 72 h), under 5.00.
In the case of `O=C(CCl)NCCC(=O)Nc1ccc2ncnc(Nc3ccc(OCc4cccc(F)c4)c(Cl)c3)c2c1` [Example 61, 3-(2-chloro-acetylamide)-N-{4-[3-chloro-4-(3-fluoro-benzyloxy)-phenylamino]-quinazolin-6-yl}-propionamide], the values for the negative logarithm of the IC50 (pIC50) with A431 (ATCC: CRL-1555) (setting [2]), in the experiment with SK-Br3 (ATCC: HTB-30) (setting [3]) and in the experiment on SW-620 (ATCC: CCL-227) (setting [4]) were 6.77, 7.01 and under 5.00, respectively.
For the compound `C=CC(=O)NCCC(=O)Nc1cc2c(Nc3ccc(OCc4cccc(F)c4)c(Cl)c3)ncnc2cc1OCCCN1CCOCC1` [Example 85-2, N-{2-[4-[3-chloro-4-(3-fluoro-benzyloxy)phenylamino]-7-(3-morpholin-4-yl-propoxy)-quinazolin-6-ylcarbamoyl]-ethyl}-acrylamide], the pIC50 with A431 (ATCC: CRL-1555) (Homo sapiens, A-431, 72 h) was 7.92; in the experiment with SK-Br3 (ATCC: HTB-30) (Homo sapiens, SK-BR-3, 72 h) it was 8.52; in the experiment with SW-620 (ATCC: CCL-227) (Homo sapiens, SW-620, 72 h), under 5.00.
